Test results from PMC4742142, “Identification of novel, in vivo active Chk1 inhibitors utilizing structure guided drug design” (Oncotarget, 2015).
“Also recorded” adds a separate entry of the source. Like-named read-outs stand apart in the source and are kept apart here.

Columns and labels:
[1] = Tolerability (MTD) in female nu/nu mice; type: in vivo
From the text: Animals were weighed daily for the first five days then twice weekly thereafter for the duration of the study. The mice were observed frequently for overt signs of any adverse, treatment-related side effects, and clinical signs of toxicity recorded. Toxicity greater than a group mean body-weight loss of more than 20% or 1 in 10 treatment-related deaths was considered to be the maximum tolerated dose.

[2] = molecular target: T1, Chk1 (Homo sapiens, UniProt O14757); assay: Wide panel binding assay (386 kinases); conditions: Chk1, 50 nM
T1 sequence (O14757 1-476): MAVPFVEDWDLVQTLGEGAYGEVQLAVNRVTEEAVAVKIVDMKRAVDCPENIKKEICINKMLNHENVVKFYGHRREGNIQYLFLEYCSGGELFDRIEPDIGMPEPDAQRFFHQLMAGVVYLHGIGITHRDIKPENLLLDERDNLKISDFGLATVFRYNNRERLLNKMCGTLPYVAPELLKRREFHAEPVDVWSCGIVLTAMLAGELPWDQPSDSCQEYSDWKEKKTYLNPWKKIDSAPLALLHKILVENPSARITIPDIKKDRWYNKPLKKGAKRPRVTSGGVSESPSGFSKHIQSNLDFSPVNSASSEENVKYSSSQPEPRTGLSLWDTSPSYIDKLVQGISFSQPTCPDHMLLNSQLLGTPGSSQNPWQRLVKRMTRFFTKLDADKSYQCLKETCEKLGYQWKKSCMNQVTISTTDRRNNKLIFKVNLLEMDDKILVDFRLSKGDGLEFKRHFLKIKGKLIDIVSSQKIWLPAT
Procedure: (§1) Selectivity against the cell cycle kinase CDK1 is considered critical for the pharmacological activity of Chk1 inhibitors as inhibiting it would prevent the G2 checkpoint abrogation and entry into mitosis; critical for the potentiation of cytotoxic DNA damage. Against a panel of 386 kinases in a wide panel binding assay, V158411 inhibited the activity of one kinase (Chk1) in the range 99-100%, three kinases 90-99% and 19 kinases 65-90% at 50 nM (Supplementary Table 1).

[3] = tested on: HT29 cells; assay: Clonogenicity (colony formation) assay; type: cell-based, human; conditions: HT29, 300 nM V158411 with gemcitabine, camptothecin or SN38
Procedure: HT29 cells were plated at a density of 300 cells per well in 6-well plates and allowed to attach for 4 hours. Cells were treated with gemcitabine, camptothecin or SN38 in the absence or presence of V158411 for 24 hours followed by drug free media for a further 14 days. Resulting colonies were stained and fixed with 0.1% crystal violet in 10% formaldehyde.

[4] = molecular target: CDK1 (Homo sapiens, UniProt P06493); assay: In vitro kinase assay, CDK1; type: biochemical
Procedure: (§2) Kinase assays were performed as previously described.

[5] = Plasma pharmacokinetics, IV bolus; type: in vivo; conditions: 10 mg/kg IV; for Vd: read-out: Vss
Procedure: (§3) Dosing of animals and collection of samples was conducted by Quotient Bioresearch (Rushden) Ltd, UK. V158411 was administered by intravenous (IV) bolus injection to female Balb/C mice, male Sprague-Dawley rats or male beagle dogs. Plasma samples were prepared by protein precipitation with acetonitrile containing internal standard (IS; dextromethorphan, 0.5 μg/mL); the analysis plate was centrifuged at 3,000 rpm for 10 minutes at 4°C. […] The ratios of analyte against IS peak areas were calculated, and concentrations derived from calibration lines generated by Quanlynx (Waters Ltd.).
(§4) Pharmacokinetic parameters were calculated using the software package WinNonLin (Pharsight Corp.). Data was analyzed using noncompartmental analysis and fitted using plasma concentration versus time curves.

[6] = molecular target: T1, Chk1; assay: Western blotting of pChk1 (S296) in HT29 cells (gemcitabine or camptothecin; washout); type: cell-based; conditions: 500 nM for 1 hour then drug free media
Procedure: (§5) Figure 3 Effect of V158411 on etoposide, gemcitabine and camptothecin induced DNA damage checkpoint and cell cycle proteins A. HT29 cells were exposed to increasing concentrations of V158411 for 1 hour followed by 25 μM etoposide for a further 5 hours. Auto-phosphorylation of Chk1 and Chk2 was determined by immunoblotting. B. HT29 cells were treated with gemcitabine (25 nM) or camptothecin (50 nM) for 16 hours followed by increasing doses of V158411 for a further 24 hours. C. HT29 cells were treated with 500 nM V158411 for 1 hour, media removed and replaced with drug free. Cells were harvested at the indicated time points post the removal of V158411. D. HT29 cells were treated with 0 or 100 nM camptothecin for 16 hours followed by V158411 for 2 - 24 hours. After the indicated time, media was removed and replaced with drug free media. All cells were harvested 24 hours after the initial addition of V158411. Protein expression was characterized by immunoblotting as described in materials and methods.
(§6) Anti-pHistone H3 (S10) was obtained from Millipore; pCdc2 (Y15), pCdc25C (S216), Chk1, pChk1 (S317), pChk2 (S516), Cyclin B1, pH2AX (S139), GAPDH and Actin from Cell Signaling Technologies and pChk1 (S296) from Abcam. […] Protein concentration was determined using BCA kit (Pierce). […]

[7] = molecular target: T2, Chk2 (Homo sapiens, UniProt O96017); assay: In vitro kinase assay, Chk2; type: biochemical; conditions: full length Chk2
Procedure: as §2

[8] = tested on: panel of 386 kinases; assay: Wide panel binding assay, whole panel; conditions: at pharmacologically relevant doses
Procedure: as §1

[9] = molecular target: T2, Chk2; assay: Etoposide induced Chk2 autophosphorylation (pS516) in HT29 cells, immunoblotting; type: cell-based; parameters: endogenous in cells; host or cells: HT29; conditions: 1 hour compound then 25 μM etoposide 5 hours
Procedure: as §5, §6

[10] = molecular target: T1, Chk1; assay: Etoposide induced Chk1 autophosphorylation (pS296) in HT29 cells, immunoblotting; type: cell-based
Procedure: as §5
Anti-pHistone H3 (S10) was obtained from Millipore; pCdc2 (Y15), pCdc25C (S216), Chk1, pChk1 (S317), pChk2 (S516), Cyclin B1, pH2AX (S139), GAPDH and Actin from Cell Signaling Technologies and pChk1 (S296) from Abcam. Treated and untreated cells were washed once with PBS and lysed in RIPA buffer containing protease and phosphatase inhibitor cocktail (Roche). Protein concentration was determined using BCA kit (Pierce). Equal amounts of lysate were separated by SDS-PAGE and western blot analysis conducted using the antibodies indicated above.

[11] = Pharmacokinetics of V158411 and irinotecan, single and combination administration; type: in vivo; conditions: mouse; for half-life / CL/F: female, Balb/C, plasma; for CL/F: read-out: CL or CL/F
Procedure: as §3, §4

[12] = other: V158411 intravenous, irinotecan intraperitoneal
[13] = other: irinotecan intraperitoneal, V158411 intravenous

CDK1, sequence (P06493 whole entry): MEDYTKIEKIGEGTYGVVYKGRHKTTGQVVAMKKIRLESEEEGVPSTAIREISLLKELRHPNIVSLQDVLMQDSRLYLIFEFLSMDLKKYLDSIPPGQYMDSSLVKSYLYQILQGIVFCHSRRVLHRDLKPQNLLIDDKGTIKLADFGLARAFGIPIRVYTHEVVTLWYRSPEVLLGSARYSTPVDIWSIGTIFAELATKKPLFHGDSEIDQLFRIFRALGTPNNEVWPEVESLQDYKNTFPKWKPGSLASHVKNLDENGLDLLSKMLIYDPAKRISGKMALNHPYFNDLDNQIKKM
CDK1, sequence (P14635 whole entry partner): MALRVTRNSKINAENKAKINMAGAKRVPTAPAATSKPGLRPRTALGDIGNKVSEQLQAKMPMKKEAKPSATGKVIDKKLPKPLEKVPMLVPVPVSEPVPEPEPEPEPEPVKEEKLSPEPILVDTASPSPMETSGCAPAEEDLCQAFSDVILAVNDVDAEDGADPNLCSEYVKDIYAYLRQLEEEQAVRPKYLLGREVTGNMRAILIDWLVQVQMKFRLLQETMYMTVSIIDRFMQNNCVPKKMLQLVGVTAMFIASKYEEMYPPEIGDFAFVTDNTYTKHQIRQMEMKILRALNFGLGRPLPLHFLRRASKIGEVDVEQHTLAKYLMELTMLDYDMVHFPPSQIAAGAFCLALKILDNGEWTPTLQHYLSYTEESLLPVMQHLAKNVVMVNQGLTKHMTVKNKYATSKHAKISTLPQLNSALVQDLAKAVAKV
T2 sequence (O96017 whole entry): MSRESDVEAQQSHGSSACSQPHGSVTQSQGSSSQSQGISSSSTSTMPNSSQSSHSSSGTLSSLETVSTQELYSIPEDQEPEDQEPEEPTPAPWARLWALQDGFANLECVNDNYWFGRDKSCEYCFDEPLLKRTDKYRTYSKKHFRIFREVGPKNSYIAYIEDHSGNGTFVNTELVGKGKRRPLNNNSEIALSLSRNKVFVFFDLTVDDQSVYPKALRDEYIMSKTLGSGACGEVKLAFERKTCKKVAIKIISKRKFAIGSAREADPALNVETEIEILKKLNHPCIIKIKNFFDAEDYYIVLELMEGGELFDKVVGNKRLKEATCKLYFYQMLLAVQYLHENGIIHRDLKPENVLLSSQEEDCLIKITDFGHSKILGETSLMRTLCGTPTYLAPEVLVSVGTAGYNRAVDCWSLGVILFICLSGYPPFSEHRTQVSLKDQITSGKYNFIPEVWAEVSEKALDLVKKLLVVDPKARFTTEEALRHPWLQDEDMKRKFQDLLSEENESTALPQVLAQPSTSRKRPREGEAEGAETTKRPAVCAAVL

With CN(C)CC(C)(C)COc1ccc2[nH]c(-c3cc(NC(=O)c4cnn(Cc5ccccc5)c4)c[nH]c3=O)cc2c1 [V158411] the “toxicity / maximum tolerated dose” value ([1]; IV bolus once or twice weekly, doses up to 100 mg/kg) was “minimal toxicity at doses up to 100 mg/kg; also recorded: the maximum tolerated dose of V158411 has yet to be found”, the “effect on irinotecan toxicity” value ([1]; MTD irinotecan (100 mg/kg IP) plus V158411 up to 100 mg/kg IV 2 hours later, q7d 3 weeks) was “did not result in increased irinotecan toxicity; also recorded: did not affect the toxicity of irinotecan” and the “acute, dose-related effects” value ([1]; single agent IV, self-limiting, minimized by slow infusion) was “flushing, tachycardia, exophthalmos”. The “effect on body weight” value ([1]; single agent, 60 to 100 mg/kg IV q7d for 21 days, female nude mice) was “no effect on body weight loss”, the “Percent inhibition at 50 nM” value ([2]; 0.05 µM) was 99-100% and the inhibition at 0.05 µM ([2]; read-out: Percent inhibition at 50 nM) was 100%. For the same compound, the “effect on fraction of cells killed in colony formation” value [3] was “significantly increased the fraction of cells killed by all three agents”, the IC50 [4] was greater than 50000 nM and the “selectivity for CDK1” value ([4]; Chk1 versus CDK1) was “more than 10 000 fold”. For the same compound, the AUC(0-t) ([5]; female, Balb/C, mouse) was 7100 ng·h/mL, the clearance ([5]; female, Balb/C, mouse) was 20 mL/min/kg and the half-life ([5]; female, Balb/C, mouse) was 2.9 h. It also gave a Vd ([5]; female, Balb/C, mouse) of 3.3 L/kg, an AUC(0-t) ([5]; male, Sprague-Dawley, rat) of 6910 ng·h/mL and a clearance ([5]; male, Sprague-Dawley, rat) of 23.2 mL/min/kg. For the same compound, the half-life ([5]; male, Sprague-Dawley, rat) was 3.3 h, the Vd ([5]; male, Sprague-Dawley, rat) was 2.4 L/kg and the AUC(0-t) ([5]; male, beagle, dog) was 16000 ng·h/mL. It also gave a clearance ([5]; male, beagle, dog) of 10.6 mL/min/kg, a half-life ([5]; male, beagle, dog) of 3.2 h and a Vd ([5]; male, beagle, dog) of 1.2 L/kg. The “duration of Chk1 inhibition (pChk1 S296) after removal of compound from the culture media” value [6] was “at least 24 hours”, the IC50 [7] was 4.5 nM and the “selectivity for Chk1 over the majority of the kinases in the panel” value [8] was greater than 100 fold. The IC50 [9] was 904 nM, the “IC50 for Chk1 autophosphorylation and EC50 for H2AX phosphorylation lower than single agent GI50” value [10] was “around 10 fold” and the IC50 ([10]; 1 hour compound then 25 μM etoposide 5 hours) was 48 nM. For the same compound, the “cellular selectivity for Chk1 versus Chk2” value ([10]; etoposide) was 19 fold, the half-life [11, 12] was 3.4 h and the CL/F [11, 12] was 17.7 mL/min/kg. It also gave a half-life [11, 13] of 3.3 h, a CL/F [11, 13] of 8.2 mL/min/kg and an AUClast fold change ([11]; combination (C) versus single administration (I)) of 2.2 fold.
